Reference: ChEMBL document CHEMBL1201862, “PubChem BioAssay data set” (2004)
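Growth conditions: 96-well plates. Treatment: test compound, 48 hours, 5 concentrations. Analysis: linear interpolation between bracketing concentrations; unreached endpoints set to highest concentration. GI50 marks 50% less growth.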 Activity calls are given as the source filed them. Rule as the data show it: active = GI50 up to about 1.1 µM and inactive = higher.

Assays:
Experiment in all cases: inhibition of tumour cell growth, NCI panel, 48 h
786-0 = system: 786-0
EKVX = system: EKVX
HCT-116 = system: HCT-116
HOP-92 = system: HOP-92
IGROV-1 = system: IGROV-1
K562 = system: K562
LOX IMVI = system: LOX IMVI
M14 = system: M14
MDA-MB-435 = system: MDA-MB-435
MDA-N = system: MDA-N
NCI-H460 = system: NCI-H460
OVCAR-5 = system: OVCAR-5
PC-3 = system: PC-3
RXF 393 = system: RXF 393
SF-295 = system: SF-295
SR = system: SR
T47D = system: T47D
TK-10 = system: TK-10
UACC-62 = system: UACC-62
BT-549 = system: BT-549

| Compound | GI50 (786-0) | GI50 (EKVX) | GI50 (HCT-116) | GI50 (HOP-92) | GI50 (IGROV-1) | GI50 (K562) | GI50 (LOX IMVI) | GI50 (M14) | GI50 (MDA-MB-435) | GI50 (MDA-N) | GI50 (NCI-H460) | GI50 (OVCAR-5) | GI50 (PC-3) | GI50 (RXF 393) | GI50 (SF-295) | GI50 (SR) | GI50 (T47D) | GI50 (TK-10) | GI50 (UACC-62) | GI50 (BT-549) |
| --- | --- | --- | --- | --- | --- | --- | --- | --- | --- | --- | --- | --- | --- | --- | --- | --- | --- | --- | --- | --- |
| CSCCCS/C1=C/CCCCCCCCCC1 | > 100 µM (inactive) | > 100 µM (inactive) | > 100 µM (inactive) | > 100 µM (inactive) | > 100 µM (inactive) | > 100 µM (inactive) | > 100 µM (inactive) | > 100 µM (inactive) | > 100 µM (inactive) | > 100 µM (inactive) | > 100 µM (inactive) | > 100 µM (inactive) | > 100 µM (inactive) | > 100 µM (inactive) | > 100 µM (inactive) | > 100 µM (inactive) | > 100 µM (inactive) | > 100 µM (inactive) | > 100 µM (inactive) | – |
| Cn1ccnc1S/C(=C\C=C(C#N)C#N)c1ccc(Cl)cc1 | 1.33 µM (inactive) | 7.89 µM (inactive) | 0.324 µM (active) | 1.31 µM (inactive) | 2.69 µM (inactive) | 0.252 µM (active) | – | 0.993 µM (active) | 0.951 µM (active) | – | 7.33 µM (inactive) | 2.31 µM (inactive) | 1.6 µM (inactive) | 1.84 µM (inactive) | 2.87 µM (inactive) | 0.143 µM (active) | 4.42 µM (inactive) | 0.492 µM (active) | 2.34 µM (inactive) | – |
| CC[N+](C)(CC)CCNC(=O)C(O)(c1ccccc1)c1ccccc1 | > 100 µM (inactive) | > 100 µM (inactive) | > 100 µM (inactive) | > 100 µM (inactive) | > 100 µM (inactive) | > 100 µM (inactive) | 0.2 µM (active) | > 100 µM (inactive) | – | > 100 µM (inactive) | > 100 µM (inactive) | > 100 µM (inactive) | > 100 µM (inactive) | > 100 µM (inactive) | > 100 µM (inactive) | > 100 µM (inactive) | – | > 100 µM (inactive) | > 100 µM (inactive) | > 100 µM (inactive) |
| N#Cc1c(-c2ccc(Cl)cc2)c(C#N)c(=O)n(NS(=O)(=O)c2ccccc2)c1S | 17.2 µM (inactive) | 32.6 µM (inactive) | 25.5 µM (inactive) | 44.7 µM (inactive) | 21.6 µM (inactive) | 27.9 µM (inactive) | 18 µM (inactive) | 26.7 µM (inactive) | 23.5 µM (inactive) | 25.9 µM (inactive) | 18.8 µM (inactive) | 54.7 µM (inactive) | 19.1 µM (inactive) | 35.8 µM (inactive) | 34.2 µM (inactive) | 17 µM (inactive) | – | 18.5 µM (inactive) | 19.1 µM (inactive) | 25.9 µM (inactive) |
| O=c1/c(=C/c2ccccc2F)sc2nc3ccccc3n12 | > 100 µM (inactive) | > 100 µM (inactive) | > 100 µM (inactive) | > 100 µM (inactive) | > 100 µM (inactive) | > 100 µM (inactive) | 91 µM (inactive) | > 100 µM (inactive) | – | – | > 100 µM (inactive) | > 100 µM (inactive) | – | > 100 µM (inactive) | > 100 µM (inactive) | 38.3 µM (inactive) | – | > 100 µM (inactive) | > 100 µM (inactive) | – |
| CC(C)C(NCc1c(O)ccc2c(-c3ccccc3)cc(=O)oc12)C(=O)O (configuration not stated) | > 100 µM (inactive) | > 100 µM (inactive) | > 100 µM (inactive) | > 100 µM (inactive) | > 100 µM (inactive) | > 100 µM (inactive) | > 100 µM (inactive) | > 100 µM (inactive) | > 100 µM (inactive) | > 100 µM (inactive) | > 100 µM (inactive) | > 100 µM (inactive) | > 100 µM (inactive) | > 100 µM (inactive) | > 100 µM (inactive) | > 100 µM (inactive) | > 100 µM (inactive) | > 100 µM (inactive) | > 100 µM (inactive) | – |
| CC(=O)Oc1ccc2c(C)cc(=O)oc2c1OC(C)=O | 37.2 µM (inactive) | 48 µM (inactive) | 32.7 µM (inactive) | – | 22.3 µM (inactive) | 47.8 µM (inactive) | 22.2 µM (inactive) | 39.1 µM (inactive) | 63.4 µM (inactive) | > 100 µM (inactive) | – | 93.5 µM (inactive) | 34.1 µM (inactive) | – | 47.5 µM (inactive) | 17.3 µM (inactive) | – | 24.2 µM (inactive) | 49.1 µM (inactive) | – |
| CC1=Cc2cccc(C)c2C(=O)C1=O [O-HIBISCANONE] | 2.88 µM (inactive) | 8.11 µM (inactive) | 2.73 µM (inactive) | 1.49 µM (inactive) | 15.6 µM (inactive) | 0.617 µM (active) | 8.77 µM (inactive) | 4.67 µM (inactive) | – | – | 20.5 µM (inactive) | 19 µM (inactive) | – | 4.66 µM (inactive) | 5.14 µM (inactive) | 0.26 µM (active) | – | 2.39 µM (inactive) | 5.58 µM (inactive) | – |
